Values of other authors as cited in article PMC9668914, “Understanding VPAC receptor family peptide binding and selectivity” (Nature Communications, 2022).

Molecular target: T1, PAC1R (Homo sapiens, UniProt P41586)
T1 construct: An HA signal peptide was inserted in place of the native signal peptide of the receptors; HA signal peptide (replaces the native signal peptide) (N); 3C protease cleavage sites (between FLAG and receptor, and between receptor and His) (internal); expressed in transfected cells; host or cells: COS-7 (transient, PEI)
T1 sequence (P41586 21-468): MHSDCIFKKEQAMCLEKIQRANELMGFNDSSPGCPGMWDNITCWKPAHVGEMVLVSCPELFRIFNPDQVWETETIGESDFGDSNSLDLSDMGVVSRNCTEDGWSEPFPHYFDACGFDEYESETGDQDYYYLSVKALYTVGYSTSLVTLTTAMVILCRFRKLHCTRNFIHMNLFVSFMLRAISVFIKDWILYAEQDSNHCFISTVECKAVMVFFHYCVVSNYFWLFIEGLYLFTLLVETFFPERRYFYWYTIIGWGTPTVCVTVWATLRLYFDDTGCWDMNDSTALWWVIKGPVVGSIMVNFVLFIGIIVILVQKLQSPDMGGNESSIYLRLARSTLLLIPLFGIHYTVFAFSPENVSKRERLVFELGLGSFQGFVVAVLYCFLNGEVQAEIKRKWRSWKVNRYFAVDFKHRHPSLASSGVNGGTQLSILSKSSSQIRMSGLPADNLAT
Design: method as in PMID 8995389
Settings: cited from earlier work

Substance: maxadilan
- agonist selectivity: PAC1R-selective agonist
